In patent US8912221B2, “Biaryl amide derivatives” (Hoffmann-La Roche Inc., priority 2010, dated 2014) one finds Ki and IC50 data, which are given here for 19 compounds.

The target of assay [1] is T1, Bradykinin-1 receptor (Homo sapiens (Human), UniProt P46663). The assay can be described thus: Receptor Binding Assay. The settings on record: membranes from CHO-K1 cells overexpressing Bradykinin-1 receptor; 6 nM [3H]Kallidin (Des Arg10, Leu9); read-out: B1R Binding Ki. On the procedure: Binding assays were done with membranes from CHO-K1 cells overexpressing Bradykinin-1 receptor.
T1 sequence (P46663 whole entry): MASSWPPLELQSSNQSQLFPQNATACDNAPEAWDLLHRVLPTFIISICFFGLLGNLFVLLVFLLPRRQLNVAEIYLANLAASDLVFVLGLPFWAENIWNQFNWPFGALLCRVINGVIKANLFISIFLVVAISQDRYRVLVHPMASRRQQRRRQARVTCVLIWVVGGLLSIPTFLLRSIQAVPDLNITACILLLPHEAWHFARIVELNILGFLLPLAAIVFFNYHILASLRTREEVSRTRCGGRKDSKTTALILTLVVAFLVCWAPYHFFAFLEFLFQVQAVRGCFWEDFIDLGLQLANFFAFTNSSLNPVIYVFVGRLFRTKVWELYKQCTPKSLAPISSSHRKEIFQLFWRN
For binding, Bradykinin-1 receptor antagonist compounds were added in various concentrations in 50 mM Tris pH 7.4, 5 mM MgCl2 together with 6 nM Kallidin (Des Arg^10, Leu^9), [3,4-Prolyl-3,4-^3H(N)] (PerkinElmer, 1.85-4.44 TBq/mmol) to 40 μg membrane protein containing approximately 1 fmol Bradykinin-1 receptor and incubated for 15 min at 27° C. To determine non-specific binding 10 μM Lys-(Des-Arg^9)-Bradykinin (Bachem) was added. Membranes were harvested through GF/B (glass fiber filter; PerkinElmer) plates, equilibrated with 0.5% polyethylenimine, air dried at 50° C. for 2 hr. Radioactivity was determined by counting in a topcounter (NXT Packard). Specific binding was defined as total binding minus nonspecific binding and typically represents about 90-95% of the total binding. Antagonist activity is expressed as Ki: inhibitor concentration required for 50% inhibition of specific binding corrected for the concentration of the radioligand.

Assay [2] has as its target T1, Bradykinin-1 receptor. The assay can be described thus: Calcium Mobilization Assay. In kind it is cell-based. Particulars: GeneBLAzer Bradykinin (B1)-NFAT-bla CHO-K1 cells; antagonist activity, FLIPR; read-out: Ca mobilization IC50. The method, then: Calcium Mobilization Assay
GeneBLAzer® Bradykinin (B1)-NFAT-bla CHO-K1 cells (from Invitrogen) stably overexpressing the human bradykinin 1 receptor were cultured in DMEM (high glucose) supplemented with 10% dialysed FBS, 1% NEAA (non essential amino acids) 1% penicillin/streptomycin, 1% G418 and 0.1 mg/ml zeocin.
For the assay cells were grown overnight in 384-well black clear flat bottom polystyrene plates (Costar) at 37° C. at 5% CO2. After washing with DMEM, 20 mM Hepes, 2.5 mM probenecid, 0.1% BSA (DMEM assay buffer) cells were loaded with 4 μM Fluo-4 in the same DMEM assay buffer for 2 hours at 30° C. Excess dye was removed and cells were washed with DMEM assay buffer. 384-well compound plates were prepared with DMEM assay buffer/0.5% DMSO with or without various concentrations of test compounds. Usually compounds were tested for agonist and antagonist activity.
Test compounds were added to the assay plate and agonist activity was monitored as fluorescence for 80 seconds with a FLIPR (488 nm excitation; 510-570 nm emission; Molecular Devices). […] Increases in intracellular calcium are reported as maximum fluorescence after agonist exposure minus basal fluorescence before exposure. Antagonist activity is indicated as inhibitor concentration required for 50% inhibition of specific calcium increases.
On the technique in general: A change in cytosolic calcium serves as a functional read-out for many receptors and channels.

Take `COc1ncc(C(=O)NC2(C(=O)N[C@H](C)c3ncc(-c4cc(Cl)cc(Cl)c4OCC(F)F)cc3F)COC2)cn1` [Example 40, 2-Methoxy-pyrimidine-5-carboxylic acid [3-((R)-1-{5-[3,5-dichloro-2-(2,2-difluoro-ethoxy)-phenyl]-3-fluoro-pyridin-2-yl}-ethylcarbamoyl)-oxetan-3-yl]-amide]: at Bradykinin-1 receptor [1], the Ki came out at 1.1 nM. The IC50 at Bradykinin-1 receptor [2] was determined as 0.1 nM.

For `Cc1nc(-c2c(F)cc(Cl)cc2-c2cnc([C@@H](C)NC(=O)C3(NC(=O)c4cncc(N)c4)COC3)c(F)c2)no1` [Example 28, 5-Amino-N-[3-((R)-1-{5-[5-chloro-3-fluoro-2-(5-methyl-[1,2,4]oxadiazol-3-yl)-phenyl]-3-fluoro-pyridin-2-yl}-ethylcarbamoyl)-oxetan-3-yl]-nicotinamide], the inhibitory constant (Ki) on Bradykinin-1 receptor [1] turned out to be 1.4 nM. Further, the concentration for half-maximal inhibition (IC50) on Bradykinin-1 receptor [2] stood at 0.1 nM.

Turning to `COc1cc(C(=O)NC2(C(=O)N[C@H](C)c3ncc(-c4cc(Cl)cc(F)c4-c4nnn(C)n4)cc3F)COC2)on1` [Example 34, 3-Methoxy-isoxazole-5-carboxylic acid [3-((R)-1-{5-[5-chloro-3-fluoro-2-(2-methyl-2H-tetrazol-5-yl)-phenyl]-3-fluoro-pyridin-2-yl}-ethylcarbamoyl)-oxetan-3-yl]-amide], at Bradykinin-1 receptor [1], the Ki was determined as 2.2 nM. Further, the concentration for half-maximal inhibition (IC50) at Bradykinin-1 receptor [2] amounted to 0.4 nM.

For the compound `COc1cc(C(=O)NC2(C(=O)N[C@H](C)c3ncc(-c4cc(Cl)cc(F)c4-c4noc(C)n4)cc3F)COC2)on1` [Example 14, 3-Methoxy-isoxazole-5-carboxylic acid [3-((R)-1-{5-[5-chloro-3-fluoro-2-(5-methyl-[1,2,4]oxadiazol-3-yl)-phenyl]-3-fluoro-pyridin-2-yl}-ethylcarbamoyl)-oxetan-3-yl]-amide], the inhibition constant Ki at Bradykinin-1 receptor [1] stood at 1.4 nM. On Bradykinin-1 receptor [2], the IC50 stood at 0.2 nM.

In the case of `Cc1cc(C(=O)NC2(C(=O)N[C@H](C)c3ccc(-c4cc(Cl)cc(F)c4-c4nnn(C)n4)cc3F)COC2)on1` [Example 23, 3-Methyl-isoxazole-5-carboxylic acid (3-{(R)-1-[5′-chloro-3,3′-difluoro-2′-(2-methyl-2H-tetrazol-5-yl)-biphenyl-4-yl]-ethylcarbamoyl}-oxetan-3-yl)-amide], at Bradykinin-1 receptor [1], the Ki was 1 nM. The IC50 on Bradykinin-1 receptor [2] is 0.1 nM.

As for `COc1ncc(C(=O)NC2(C(=O)N[C@H](C)c3ccc(-c4cc(Cl)cc(F)c4-c4nnn(C)n4)cc3F)COC2)cn1` [Example 44, 2-Methoxy-pyrimidine-5-carboxylic acid (3-{(R)-1-[5′-chloro-3,3′-difluoro-2′-(2-methyl-2H-tetrazol-5-yl)-biphenyl-4-yl]-ethylcarbamoyl}-oxetan-3-yl)-amide], the inhibition constant (Ki) at Bradykinin-1 receptor [1] was determined as 1.1 nM. For the same compound, the IC50 on Bradykinin-1 receptor [2] came out at 0.1 nM.

As for `Cc1cc(C(=O)NC2(C(=O)N[C@H](C)c3ncc(-c4cc(Cl)cc(F)c4-c4noc(C)n4)cc3F)COC2)on1` [Example 4, 3-Methyl-isoxazole-5-carboxylic acid [3-((R)-1-{5-[5-chloro-3-fluoro-2-(5-methyl-[1,2,4]oxadiazol-3-yl)-phenyl]-3-fluoro-pyridin-2-yl}-ethylcarbamoyl)-oxetan-3-yl]-amide], the Ki on Bradykinin-1 receptor [1] worked out at 2.5 nM. Moreover, the half-inhibitory concentration (IC50) at Bradykinin-1 receptor [2] was 0.2 nM.

On to `COC(=O)c1c(Cl)cccc1-c1ccc([C@@H](C)NC(=O)C2(NC(=O)CC(F)(F)F)COC2)c(F)c1` [Example 8, 3-Chloro-3′-fluoro-4′-((R)-1-{[3-(3,3,3-trifluoro-propionylamino)-oxetane-3-carbonyl]-amino}-ethyl)-biphenyl-2-carboxylic acid methyl ester], for which the inhibition constant Ki at Bradykinin-1 receptor [1] is 5.3 nM. The IC50 at Bradykinin-1 receptor [2] came to 0.4 nM.

In the case of `Cc1nnc(C(=O)NC2(C(=O)N[C@H](C)c3ncc(-c4cc(Cl)cc(Cl)c4OCC(F)F)cc3F)COC2)o1` [Example 39, 5-Methyl-[1,3,4]oxadiazole-2-carboxylic acid [3-((R)-1-{5-[3,5-dichloro-2-(2,2-difluoro-ethoxy)-phenyl]-3-fluoro-pyridin-2-yl}-ethylcarbamoyl)-oxetan-3-yl]-amide], the inhibition constant Ki at Bradykinin-1 receptor [1] was found to be 8.7 nM. Further, the half-inhibitory concentration (IC50) on Bradykinin-1 receptor [2] stood at 3.9 nM.

For the compound `COc1cc(C(=O)NC2(C(=O)N[C@H](C)c3ccc(-c4cc(Cl)cc(F)c4-c4nnn(C)n4)cc3F)COC2)on1` [Example 43, 3-Methoxy-isoxazole-5-carboxylic acid (3-{(R)-1-[5′-chloro-3,3′-difluoro-2′-(2-methyl-2H-tetrazol-5-yl)-biphenyl-4-yl]-ethylcarbamoyl}-oxetan-3-yl)-amide], the Ki on Bradykinin-1 receptor [1] worked out at 1.4 nM. Besides, the IC50 at Bradykinin-1 receptor [2] stood at 0.1 nM.

Regarding `C[C@@H](NC(=O)C1(NC(=O)C(F)(F)F)COC1)c1ccc(-c2cc(Cl)cc(Cl)c2OCC(F)F)cc1F` [Example 33, 3-(2,2,2-Trifluoro-acetylamino)-oxetane-3-carboxylic acid {(R)-1-[3′,5′-dichloro-2′-(2,2-difluoro-ethoxy)-3-fluoro-biphenyl-4-yl]-ethyl}-amide], the inhibition constant Ki on Bradykinin-1 receptor [1] is 19.9 nM. Further, the half-maximal inhibitory concentration (IC50) at Bradykinin-1 receptor [2] was 5.3 nM.

Regarding `Cc1cc(C(=O)NC2(C(=O)N[C@H](C)c3ccc(-c4cc(Cl)cc(F)c4-c4noc(C)n4)cc3F)COC2)on1` [Example 24, 3-Methyl-isoxazole-5-carboxylic acid (3-{(R)-1-[5′-chloro-3,3′-difluoro-2′-(5-methyl-[1,2,4]oxadiazol-3-yl)-biphenyl-4-yl]-ethylcarbamoyl}-oxetan-3-yl)-amide], the Ki on Bradykinin-1 receptor [1] amounted to 1.2 nM. For the same compound, the 50% inhibitory concentration (IC50) on Bradykinin-1 receptor [2] was found to be 0.1 nM.

For `COC(=O)c1c(Cl)cccc1-c1ccc([C@@H](C)NC(=O)C2(NC(=O)c3cc(C)no3)COC2)c(F)c1` [Example 13, 3-Chloro-3′-fluoro-4′-[(R)-1-({3-[(3-methyl-isoxazole-5-carbonyl)-amino]-oxetane-3-carbonyl}-amino)-ethyl]-biphenyl-2-carboxylic acid methyl ester], the Ki on Bradykinin-1 receptor [1] worked out at 1 nM. Further, the IC50 on Bradykinin-1 receptor [2] is 0.04 nM.

As to `Cc1nc(-c2c(F)cc(Cl)cc2-c2cnc([C@@H](C)NC(=O)C3(NC(=O)c4nnc(C)o4)COC3)c(F)c2)no1` [Example 19, 5-Methyl-[1,3,4]oxadiazole-2-carboxylic acid [3-((R)-1-{5-[5-chloro-3-fluoro-2-(5-methyl-[1,2,4]oxadiazol-3-yl)-phenyl]-3-fluoro-pyridin-2-yl}-ethylcarbamoyl)-oxetan-3-yl]-amide], the Ki at Bradykinin-1 receptor [1] worked out at 5.1 nM. The half-maximal inhibitory concentration (IC50) on Bradykinin-1 receptor [2] worked out at 1.2 nM.

`COc1cc(C(=O)NC2(C(=O)N[C@H](C)c3ncc(-c4cc(Cl)cc(Cl)c4OCC(F)F)cc3F)COC2)on1` [Example 18, 3-Methoxy-isoxazole-5-carboxylic acid [3-((R)-1-{5-[3,5-dichloro-2-(2,2-difluoro-ethoxy)-phenyl]-3-fluoro-pyridin-2-yl}-ethylcarbamoyl)-oxetan-3-yl]-amide]: the inhibitory constant (Ki) at Bradykinin-1 receptor [1] amounted to 3 nM. On Bradykinin-1 receptor [2], the IC50 is 1.1 nM.

As for `COCC(=O)NC1(C(=O)N[C@H](C)c2ncc(-c3cc(Cl)cc(F)c3-c3noc(C)n3)cc2F)COC1` [Example 17, 3-(2-Methoxy-acetylamino)-oxetane-3-carboxylic acid ((R)-1-{5-[5-chloro-3-fluoro-2-(5-methyl-[1,2,4]oxadiazol-3-yl)-phenyl]-3-fluoro-pyridin-2-yl}-ethyl)-amide], at Bradykinin-1 receptor [1], the inhibition constant (Ki) came to 25 nM. Besides, the IC50 at Bradykinin-1 receptor [2] was 26.6 nM.

In the case of `COc1cc(C(=O)NC2(C(=O)N[C@H](C)c3ccc(-c4cc(Cl)cc(Cl)c4OCC(F)F)cc3F)COC2)on1` [Example 37, 3-Methoxy-isoxazole-5-carboxylic acid (3-{(R)-1-[3′,5′-dichloro-2′-(2,2-difluoro-ethoxy)-3-fluoro-biphenyl-4-yl]-ethylcarbamoyl}-oxetan-3-yl)-amide], at Bradykinin-1 receptor [1], the Ki turned out to be 3.5 nM. For the same compound, on Bradykinin-1 receptor [2], the half-maximal inhibitory concentration (IC50) was determined as 0.4 nM.

On to `COC(=O)c1c(Cl)cccc1-c1ccc([C@@H](C)NC(=O)C2(NC(=O)C(F)(F)F)COC2)c(F)c1` [Example 6, 3-Chloro-3′-fluoro-4′-((R)-1-{[3-(2,2,2-trifluoro-acetylamino)-oxetane-3-carbonyl]-amino}-ethyl)-biphenyl-2-carboxylic acid methyl ester], for which the Ki on Bradykinin-1 receptor [1] came out at 6.5 nM. Also, the IC50 on Bradykinin-1 receptor [2] is 2.2 nM.

Regarding `Cc1nc(-c2c(F)cc(Cl)cc2-c2cnc([C@@H](C)NC(=O)C3(NC(=O)c4snnc4C)COC3)c(F)c2)no1` [Example 16, 4-Methyl-[1,2,3]thiadiazole-5-carboxylic acid [3-((R)-1-{5-[5-chloro-3-fluoro-2-(5-methyl-[1,2,4]oxadiazol-3-yl)-phenyl]-3-fluoro-pyridin-2-yl}-ethylcarbamoyl)-oxetan-3-yl]-amide], the inhibition constant (Ki) at Bradykinin-1 receptor [1] is 1.6 nM. The half-inhibitory concentration (IC50) at Bradykinin-1 receptor [2] worked out at 0.4 nM.

As a reminder, the Ki is a dissociation constant, usually derived from enzyme kinetics or from competition with a known ligand. As a reminder, the IC50 is the concentration that inhibits the measured activity by half.
